Assay: pKa values of the azo dyes
Format: physicochemical
Conditions: azo dye
Description: Thus, in the hair dye composition of the present invention having pH (25° C.) of 7.5 to 12, almost 80% or more of these azo dyes are present in an anionic state where a proton(s) is dissociated.

Row | SMILES | pKa
1 | CSc1nsc(/N=N/c2ccc(O)c(Cl)c2)n1 [Example A-1] | 6
2 | Cn1nccc1/N=N/c1ccc(O)c(Cl)c1 [Example A-3] | 7.5
3 | NS(=O)(=O)c1ccc2nsc(/N=N/c3ccc(O)c(Cl)c3)c2c1 [Example A-2] | 6

Source: patent publication US10478389B2, “Hair-dye composition” (KAO CORPORATION, priority 2014, dated 2019)
